% of control and % of inhibition data for nine compounds are collected here from ChEMBL document CHEMBL5465560, “Selectivity Literature for EUbOPEN Chemogenomic Library” (2024).

For assay [1], the target named is Serine/threonine-protein kinase PAK 4 (Homo sapiens, UniProt O96013). Nature of the assay: Selectivity interaction (KinomeScan (DiscoverX)) EUB0001619a PAK4. Particulars: at 1 µM.
Assay [2] has as its target T1, Mitogen-activated protein kinase kinase kinase 5 (Homo sapiens) (UniProt Q99683).
T1 sequence (whole entry): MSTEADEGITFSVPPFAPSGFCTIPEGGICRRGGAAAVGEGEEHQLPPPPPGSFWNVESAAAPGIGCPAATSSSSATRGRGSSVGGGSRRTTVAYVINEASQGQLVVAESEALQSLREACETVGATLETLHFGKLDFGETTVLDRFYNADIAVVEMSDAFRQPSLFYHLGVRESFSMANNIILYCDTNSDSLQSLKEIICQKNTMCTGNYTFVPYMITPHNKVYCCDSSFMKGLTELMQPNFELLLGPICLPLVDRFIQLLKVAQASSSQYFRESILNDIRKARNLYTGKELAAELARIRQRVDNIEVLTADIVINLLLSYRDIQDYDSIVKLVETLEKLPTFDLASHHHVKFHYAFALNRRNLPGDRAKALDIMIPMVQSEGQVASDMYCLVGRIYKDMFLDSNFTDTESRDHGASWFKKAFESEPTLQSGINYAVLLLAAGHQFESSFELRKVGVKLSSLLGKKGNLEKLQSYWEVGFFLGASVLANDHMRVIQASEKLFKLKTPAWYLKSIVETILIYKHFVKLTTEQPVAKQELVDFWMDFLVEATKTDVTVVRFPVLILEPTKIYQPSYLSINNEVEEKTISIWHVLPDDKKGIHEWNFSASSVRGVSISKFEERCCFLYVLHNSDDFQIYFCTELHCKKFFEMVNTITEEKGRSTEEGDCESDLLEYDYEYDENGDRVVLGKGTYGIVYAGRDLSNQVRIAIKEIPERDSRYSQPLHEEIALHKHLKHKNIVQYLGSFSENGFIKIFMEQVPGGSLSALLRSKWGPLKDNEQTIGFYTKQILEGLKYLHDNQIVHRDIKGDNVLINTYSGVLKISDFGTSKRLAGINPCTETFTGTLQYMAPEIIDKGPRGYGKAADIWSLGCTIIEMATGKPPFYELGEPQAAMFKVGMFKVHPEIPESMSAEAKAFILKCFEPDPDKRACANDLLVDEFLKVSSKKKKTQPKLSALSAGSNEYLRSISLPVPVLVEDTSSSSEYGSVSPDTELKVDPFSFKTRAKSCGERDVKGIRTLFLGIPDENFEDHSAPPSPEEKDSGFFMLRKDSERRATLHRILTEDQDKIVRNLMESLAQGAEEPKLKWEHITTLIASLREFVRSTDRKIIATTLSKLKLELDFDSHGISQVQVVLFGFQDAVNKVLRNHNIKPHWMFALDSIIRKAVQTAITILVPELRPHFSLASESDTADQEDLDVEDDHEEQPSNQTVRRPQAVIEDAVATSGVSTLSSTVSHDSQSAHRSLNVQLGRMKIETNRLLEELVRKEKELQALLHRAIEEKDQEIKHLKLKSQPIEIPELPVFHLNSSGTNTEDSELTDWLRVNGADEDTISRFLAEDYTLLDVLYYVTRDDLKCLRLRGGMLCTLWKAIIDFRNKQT
Particulars: at 10 µM.

The target of the next assay is Activated CDC42 kinase 1 (Homo sapiens, UniProt Q07912). Briefly: Selectivity interaction (KinomeScan (DiscoverX)) EUB0000666a TNK2. Particulars: at 10 µM.
Activated CDC42 kinase 1, sequence (Q07912 whole entry, looked up): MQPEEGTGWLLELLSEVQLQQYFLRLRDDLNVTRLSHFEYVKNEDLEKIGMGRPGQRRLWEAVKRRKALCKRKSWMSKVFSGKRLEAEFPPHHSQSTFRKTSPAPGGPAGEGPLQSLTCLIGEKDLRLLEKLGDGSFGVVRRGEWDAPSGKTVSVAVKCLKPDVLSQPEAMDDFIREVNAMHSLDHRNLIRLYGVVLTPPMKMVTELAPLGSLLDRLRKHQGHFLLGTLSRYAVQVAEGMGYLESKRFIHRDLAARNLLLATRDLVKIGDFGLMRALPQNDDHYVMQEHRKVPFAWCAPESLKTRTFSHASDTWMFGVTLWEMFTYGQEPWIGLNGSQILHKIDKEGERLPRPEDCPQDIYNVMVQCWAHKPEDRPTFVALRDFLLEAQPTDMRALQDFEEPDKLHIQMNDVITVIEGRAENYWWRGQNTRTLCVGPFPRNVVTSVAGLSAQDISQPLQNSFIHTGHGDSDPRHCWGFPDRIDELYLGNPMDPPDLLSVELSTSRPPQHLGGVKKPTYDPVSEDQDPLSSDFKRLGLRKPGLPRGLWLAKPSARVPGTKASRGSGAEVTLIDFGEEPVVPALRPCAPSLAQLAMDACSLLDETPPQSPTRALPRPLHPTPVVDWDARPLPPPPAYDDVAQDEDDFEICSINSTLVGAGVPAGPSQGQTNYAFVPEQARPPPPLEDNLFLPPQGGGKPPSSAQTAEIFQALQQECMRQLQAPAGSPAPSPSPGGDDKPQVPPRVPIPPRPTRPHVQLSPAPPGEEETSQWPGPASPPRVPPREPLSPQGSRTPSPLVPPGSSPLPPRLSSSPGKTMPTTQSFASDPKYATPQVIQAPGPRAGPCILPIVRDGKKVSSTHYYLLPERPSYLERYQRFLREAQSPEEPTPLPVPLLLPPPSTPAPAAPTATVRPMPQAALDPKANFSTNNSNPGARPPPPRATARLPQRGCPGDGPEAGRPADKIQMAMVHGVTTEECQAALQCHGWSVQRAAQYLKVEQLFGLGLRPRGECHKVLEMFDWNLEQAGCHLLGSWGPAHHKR
In assay [3] the target is T2, Tyrosine-protein kinase TXK (Homo sapiens) (UniProt P42681).
T2 sequence (whole entry): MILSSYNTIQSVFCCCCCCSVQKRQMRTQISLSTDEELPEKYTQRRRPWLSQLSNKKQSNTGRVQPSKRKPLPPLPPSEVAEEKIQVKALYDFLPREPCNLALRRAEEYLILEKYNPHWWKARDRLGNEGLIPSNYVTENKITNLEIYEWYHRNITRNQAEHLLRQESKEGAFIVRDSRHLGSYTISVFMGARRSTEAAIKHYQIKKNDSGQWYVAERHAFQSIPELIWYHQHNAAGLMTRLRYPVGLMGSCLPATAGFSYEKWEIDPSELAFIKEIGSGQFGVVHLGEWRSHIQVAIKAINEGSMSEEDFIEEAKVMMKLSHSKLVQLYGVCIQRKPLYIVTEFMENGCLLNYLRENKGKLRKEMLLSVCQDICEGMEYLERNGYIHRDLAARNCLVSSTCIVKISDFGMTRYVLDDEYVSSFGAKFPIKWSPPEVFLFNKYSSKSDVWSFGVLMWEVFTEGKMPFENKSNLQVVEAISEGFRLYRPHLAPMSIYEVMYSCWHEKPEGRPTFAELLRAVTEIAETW
Nature of the assay: Selectivity interaction (KinomeScan (DiscoverX)) EUB0000666a TXK. Conditions: at 10 µM.

In assay [4] the target is Fibroblast growth factor receptor 4 (Homo sapiens, UniProt P22455). Briefly: Selectivity interaction (SelectScreen profiling (Invitrogen)) EUB0000607a FGFR4. Particulars: at 2 µM.
Fibroblast growth factor receptor 4, sequence (P22455 22-802 limits assumed): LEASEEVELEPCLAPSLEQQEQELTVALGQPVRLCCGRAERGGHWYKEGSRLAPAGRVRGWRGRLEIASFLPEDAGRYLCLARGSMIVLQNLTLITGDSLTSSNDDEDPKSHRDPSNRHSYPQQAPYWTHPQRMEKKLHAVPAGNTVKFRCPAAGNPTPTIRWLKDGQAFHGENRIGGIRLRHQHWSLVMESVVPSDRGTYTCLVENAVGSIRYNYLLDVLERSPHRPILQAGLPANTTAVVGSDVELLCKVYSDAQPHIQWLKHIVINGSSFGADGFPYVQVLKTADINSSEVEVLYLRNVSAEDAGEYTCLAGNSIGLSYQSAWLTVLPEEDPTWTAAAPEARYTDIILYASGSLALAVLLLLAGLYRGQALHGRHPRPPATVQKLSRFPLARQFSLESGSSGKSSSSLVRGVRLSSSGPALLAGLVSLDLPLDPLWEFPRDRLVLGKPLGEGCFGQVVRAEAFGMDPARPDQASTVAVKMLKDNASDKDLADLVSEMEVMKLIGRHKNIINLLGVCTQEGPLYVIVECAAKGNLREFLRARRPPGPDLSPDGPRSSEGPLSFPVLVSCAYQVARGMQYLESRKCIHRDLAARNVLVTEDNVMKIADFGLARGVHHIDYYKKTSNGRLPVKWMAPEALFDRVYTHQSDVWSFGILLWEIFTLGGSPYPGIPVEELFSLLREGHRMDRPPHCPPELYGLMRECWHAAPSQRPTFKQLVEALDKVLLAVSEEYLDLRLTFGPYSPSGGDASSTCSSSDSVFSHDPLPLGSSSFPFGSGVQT
Assay [5] concerns the target Calcium/calmodulin-dependent protein kinase kinase 1 (Homo sapiens) (UniProt Q8N5S9). Particulars: at 10 µM.
The subject of assay [6] is Mast/stem cell growth factor receptor Kit (Homo sapiens), P10721 [L576P]. Conditions: at 10 µM.
Assay [7] has as its target Serine/threonine-protein kinase WNK1 (Homo sapiens) (UniProt Q9H4A3). Briefly: Selectivity interaction (ActivX KiNativ screen (kinase selectivity in THP-1 cell lysates)) EUB0000639a WNK1. Type of assay: subcellular. Conditions: lysate, at 1 µM.
In a further assay the target is Aurora kinase B (Homo sapiens, UniProt Q96GD4). Briefly: Selectivity interaction (Kinase panel (literature)) EUB0001199aCl AURKB. Particulars: at 1 µM.
Assay [8] addresses Insulin receptor-related protein (Homo sapiens) (UniProt P14616). Briefly: Selectivity interaction (Upstate Kinase Profiler service (Millipore)) EUB0000056c INSRR. Conditions: at 1 µM.
For assay [9], the target named is Ribosomal protein S6 kinase alpha-5 (Homo sapiens) (UniProt O75582). Nature of the assay: Selectivity interaction (KinomeScan (DiscoverX)) EUB0000618a RPS6KA5. Conditions: at 10 µM.
Ribosomal protein S6 kinase alpha-5 (Homo sapiens), sequence (O75582 whole entry, looked up): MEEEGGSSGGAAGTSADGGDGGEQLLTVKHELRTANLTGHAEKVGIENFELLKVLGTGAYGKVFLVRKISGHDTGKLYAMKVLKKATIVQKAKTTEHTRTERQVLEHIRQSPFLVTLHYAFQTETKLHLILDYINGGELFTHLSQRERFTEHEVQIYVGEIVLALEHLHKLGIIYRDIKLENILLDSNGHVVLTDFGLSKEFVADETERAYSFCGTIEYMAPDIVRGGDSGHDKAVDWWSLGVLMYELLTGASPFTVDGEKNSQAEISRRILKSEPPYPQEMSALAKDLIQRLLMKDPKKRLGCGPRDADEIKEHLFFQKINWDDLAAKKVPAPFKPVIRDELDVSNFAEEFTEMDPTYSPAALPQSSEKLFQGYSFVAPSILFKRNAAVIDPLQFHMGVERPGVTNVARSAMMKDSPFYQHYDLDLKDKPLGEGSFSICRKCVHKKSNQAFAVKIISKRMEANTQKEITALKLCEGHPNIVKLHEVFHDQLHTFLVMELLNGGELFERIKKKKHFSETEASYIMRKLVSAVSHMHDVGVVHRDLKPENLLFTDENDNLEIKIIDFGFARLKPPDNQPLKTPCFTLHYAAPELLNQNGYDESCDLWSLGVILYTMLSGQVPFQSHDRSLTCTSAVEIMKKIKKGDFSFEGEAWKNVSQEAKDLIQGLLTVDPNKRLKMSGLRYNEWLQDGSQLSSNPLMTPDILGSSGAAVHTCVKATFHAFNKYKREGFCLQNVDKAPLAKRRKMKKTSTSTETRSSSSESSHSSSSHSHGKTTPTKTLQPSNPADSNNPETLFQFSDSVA

Insulin receptor-related protein (Homo sapiens), sequence (P14616 27-742 limits assumed): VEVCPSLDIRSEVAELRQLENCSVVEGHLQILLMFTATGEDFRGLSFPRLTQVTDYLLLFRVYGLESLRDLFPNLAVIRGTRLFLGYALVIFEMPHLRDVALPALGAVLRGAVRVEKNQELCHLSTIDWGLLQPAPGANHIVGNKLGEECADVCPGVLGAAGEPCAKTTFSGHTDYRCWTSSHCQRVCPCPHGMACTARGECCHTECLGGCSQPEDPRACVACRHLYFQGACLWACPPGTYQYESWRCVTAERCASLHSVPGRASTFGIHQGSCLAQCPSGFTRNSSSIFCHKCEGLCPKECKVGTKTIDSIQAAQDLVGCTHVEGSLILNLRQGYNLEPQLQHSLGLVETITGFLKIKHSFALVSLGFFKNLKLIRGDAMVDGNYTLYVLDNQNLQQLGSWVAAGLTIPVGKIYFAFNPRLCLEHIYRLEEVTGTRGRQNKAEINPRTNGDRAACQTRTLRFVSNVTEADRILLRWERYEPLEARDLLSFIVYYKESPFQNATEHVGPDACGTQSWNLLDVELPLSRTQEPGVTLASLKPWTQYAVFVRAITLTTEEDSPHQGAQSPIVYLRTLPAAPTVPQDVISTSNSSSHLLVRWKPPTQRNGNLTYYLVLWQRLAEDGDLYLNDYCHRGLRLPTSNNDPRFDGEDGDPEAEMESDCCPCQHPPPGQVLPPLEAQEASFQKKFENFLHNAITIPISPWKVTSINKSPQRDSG
Insulin receptor-related protein (Homo sapiens), sequence (P14616 747-1297 limits assumed): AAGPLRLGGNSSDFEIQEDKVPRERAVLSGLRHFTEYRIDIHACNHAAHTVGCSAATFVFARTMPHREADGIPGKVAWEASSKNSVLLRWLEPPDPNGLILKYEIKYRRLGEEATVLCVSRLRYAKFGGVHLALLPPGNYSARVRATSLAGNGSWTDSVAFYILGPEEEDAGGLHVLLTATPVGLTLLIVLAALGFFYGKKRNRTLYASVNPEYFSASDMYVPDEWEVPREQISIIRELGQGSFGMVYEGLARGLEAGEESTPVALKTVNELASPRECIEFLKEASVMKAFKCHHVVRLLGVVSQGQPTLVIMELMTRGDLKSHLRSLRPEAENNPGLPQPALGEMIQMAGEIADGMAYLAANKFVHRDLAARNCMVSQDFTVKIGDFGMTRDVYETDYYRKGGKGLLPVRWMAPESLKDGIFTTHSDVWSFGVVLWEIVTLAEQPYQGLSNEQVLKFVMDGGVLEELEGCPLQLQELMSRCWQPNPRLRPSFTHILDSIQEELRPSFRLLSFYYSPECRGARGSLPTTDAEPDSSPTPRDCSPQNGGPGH
Calcium/calmodulin-dependent protein kinase kinase 1 (Homo sapiens), sequence (Q8N5S9 whole entry, looked up): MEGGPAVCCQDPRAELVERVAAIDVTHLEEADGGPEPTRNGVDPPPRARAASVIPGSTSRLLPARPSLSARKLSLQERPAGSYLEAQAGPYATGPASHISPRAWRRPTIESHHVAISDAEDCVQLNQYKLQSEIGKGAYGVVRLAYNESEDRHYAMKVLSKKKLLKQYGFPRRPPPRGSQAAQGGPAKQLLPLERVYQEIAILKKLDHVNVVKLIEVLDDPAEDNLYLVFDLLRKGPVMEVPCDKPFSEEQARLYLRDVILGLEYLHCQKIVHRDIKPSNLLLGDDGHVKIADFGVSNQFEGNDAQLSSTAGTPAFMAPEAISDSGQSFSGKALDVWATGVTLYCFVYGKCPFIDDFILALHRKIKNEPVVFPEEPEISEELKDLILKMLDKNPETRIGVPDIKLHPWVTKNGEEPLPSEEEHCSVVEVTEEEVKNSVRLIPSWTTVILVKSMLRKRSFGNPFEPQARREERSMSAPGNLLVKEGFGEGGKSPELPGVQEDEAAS
Serine/threonine-protein kinase PAK 4, sequence (O96013 whole entry, looked up): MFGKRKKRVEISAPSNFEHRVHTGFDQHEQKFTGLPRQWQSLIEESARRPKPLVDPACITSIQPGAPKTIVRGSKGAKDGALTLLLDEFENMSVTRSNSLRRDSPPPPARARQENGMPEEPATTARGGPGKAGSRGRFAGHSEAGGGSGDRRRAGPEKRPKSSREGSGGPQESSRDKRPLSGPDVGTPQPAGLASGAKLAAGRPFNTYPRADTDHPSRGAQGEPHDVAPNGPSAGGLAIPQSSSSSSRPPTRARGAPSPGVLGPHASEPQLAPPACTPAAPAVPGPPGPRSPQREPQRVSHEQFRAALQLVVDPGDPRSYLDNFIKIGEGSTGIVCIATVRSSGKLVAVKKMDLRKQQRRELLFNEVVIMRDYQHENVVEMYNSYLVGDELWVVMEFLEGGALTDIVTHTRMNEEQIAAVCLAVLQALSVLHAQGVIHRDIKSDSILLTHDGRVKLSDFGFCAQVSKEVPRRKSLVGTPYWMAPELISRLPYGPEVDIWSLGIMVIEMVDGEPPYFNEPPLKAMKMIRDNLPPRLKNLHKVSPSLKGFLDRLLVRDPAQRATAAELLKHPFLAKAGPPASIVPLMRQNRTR

For the compound `N#Cc1cccc(-c2c[nH]c3ncnc(N4CCOCC4)c23)c1`, the % of control in [1] was 100%.

`CCN(CC)CCCCNc1ncc2cc(-c3cc(OC)cc(OC)c3)c(NC(=O)NC(C)(C)C)nc2n1`: the % of control in assay [2] was 100%.

As for `O=C(NOC[C@H](O)CO)c1ccc(F)c(F)c1Nc1ccc(I)cc1F`, the values for the % of control (on Activated CDC42 kinase 1; in [3]) were 72% and 100%, respectively.

For `CNC(=O)Nc1ccc(-c2nc(N3CC4CCC(C3)O4)c3cnn(C4CCC5(CC4)OCCO5)c3n2)cc1`, the % of inhibition in assay [4] was found to be 4%.

For the compound `Cc1cc([C@@H](C)Nc2ccccc2C(=O)O)c2nc(N3CCOCC3)cc(=O)n2c1` [AZD-6482], the figures for the % of control in [5] and in assay [6] were 98% and 95%, respectively.

Take `CC[C@@H]1[C@H](F)C(=O)N[C@@H]1COc1nccc2cc(C(N)=O)c(OC)cc12` [ZIMLOVISERTIB]: the % of inhibition in [7] is -7.7%.

Consider `CN1Cc2nccc(-c3cn(C)nc3-c3ccc(F)cc3)c2C1=O`, for which, at Aurora kinase B, the % of inhibition came out at 4%.

With `Cc1ccc(-c2ccc3c(ccc4sc5c(c43)NC[C@@H](C)NC5=O)n2)cn1`, the % of inhibition in assay [8] was -8%.

In turn, `O[C@H]1CC[C@H](Nc2ncc3nc(Nc4c(F)cc(F)cc4F)n([C@H]4CCOC4)c3n2)CC1` yielded a % of control in [9] of 68%.
